Laboratory results reported in ChEMBL document CHEMBL1201862, “PubChem BioAssay data set” (2004).
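Dose response: 5 concentrations. Exposure: 48 h. Format: 96-well plates. Endpoint: linear interpolation; highest concentration if not reached. Here, GI50 denotes the concentration required for 50% inhibition of growth.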 The source made the active and inactive calls. Cut-off read from the data, not from the text of the source: active = GI50 up to about 1.1 µM and inactive = higher.

Columns and labels:
Test in all cases: NCI anticancer screen, dose series, 48 h
Malme-3M = system: Malme-3M
CAKI-1 = system: CAKI-1
SK-MEL-5 = system: SK-MEL-5
MCF7 = system: MCF7
OVCAR-4 = system: OVCAR-4
NCI-H460 = system: NCI-H460
HOP-92 = system: HOP-92
OVCAR-5 = system: OVCAR-5
SK-OV-3 = system: SK-OV-3
ACHN = system: ACHN
SF-268 = system: SF-268
SW-620 = system: SW-620
RXF 393 = system: RXF 393
NCI/ADR-RES = system: NCI/ADR-RES
K562 = system: K562
RPMI-8226 = system: RPMI-8226
CCRF-CEM = system: CCRF-CEM
IGROV-1 = system: IGROV-1
SNB-75 = system: SNB-75
SR = system: SR
UACC-62 = system: UACC-62
A549 = system: A549
COLO 205 = system: COLO 205
M14 = system: M14
MOLT-4 = system: MOLT-4
HL-60 = system: HL-60
U-251 = system: U-251
SK-MEL-2 = system: SK-MEL-2
NCI-H23 = system: NCI-H23
SK-MEL-28 = system: SK-MEL-28
T47D = system: T47D
HOP-62 = system: HOP-62
MDA-MB-435 = system: MDA-MB-435
786-0 = system: 786-0
UO-31 = system: UO-31
DU-145 = system: DU-145
SF-539 = system: SF-539
EKVX = system: EKVX
HCC 2998 = system: HCC 2998
HCT-116 = system: HCT-116
HT-29 = system: HT-29
NCI-H522 = system: NCI-H522
MDA-MB-231 = system: MDA-MB-231
A498 = system: A498
SN12C = system: SN12C
HCT-15 = system: HCT-15
MDA-N = system: MDA-N
TK-10 = system: TK-10
UACC-257 = system: UACC-257
OVCAR-3 = system: OVCAR-3
PC-3 = system: PC-3
SNB-19 = system: SNB-19
SF-295 = system: SF-295

SMILES | GI50 (Malme-3M) | GI50 (SK-MEL-5) | GI50 (MCF7) | GI50 (NCI-H460) | GI50 (HOP-92) | GI50 (OVCAR-5) | GI50 (SK-OV-3) | GI50 (ACHN) | GI50 (SF-268) | GI50 (RXF 393) | GI50 (NCI/ADR-RES) | GI50 (K562) | GI50 (RPMI-8226) | GI50 (SNB-75) | GI50 (COLO 205) | GI50 (M14) | GI50 (SK-MEL-28) | GI50 (T47D) | GI50 (HOP-62) | GI50 (MDA-MB-435) | also measured
C=CCNc1nc2c(N)ncnc2s1 | > 10 µM (inactive) | > 10 µM (inactive) | > 10 µM (inactive) | > 10 µM (inactive) | > 10 µM (inactive) | > 10 µM (inactive) | > 10 µM (inactive) | > 10 µM (inactive) | > 10 µM (inactive) | > 10 µM (inactive) | > 10 µM (inactive) | > 10 µM (inactive) | > 10 µM (inactive) | > 10 µM (inactive) | > 10 µM (inactive) | > 10 µM (inactive) | > 10 µM (inactive) | > 10 µM (inactive) | > 10 µM (inactive) | > 10 µM (inactive) | GI50 (CAKI-1): > 10 µM (inactive); GI50 (OVCAR-4): > 10 µM (inactive); GI50 (SW-620): > 10 µM (inactive); GI50 (CCRF-CEM): > 10 µM (inactive); GI50 (IGROV-1): > 10 µM (inactive); GI50 (SR): > 10 µM (inactive); GI50 (UACC-62): > 10 µM (inactive); GI50 (A549): > 10 µM (inactive); GI50 (MOLT-4): > 10 µM (inactive); GI50 (HL-60): > 10 µM (inactive); GI50 (U-251): > 10 µM (inactive); GI50 (SK-MEL-2): > 10 µM (inactive); GI50 (NCI-H23): > 10 µM (inactive); GI50 (786-0): > 10 µM (inactive)
CCOC(=O)C(NC(=O)CC)(C(F)(F)F)P(=O)(OCC)OCC (stereo unspecified) | > 100 µM (inactive) |  | > 100 µM (inactive) |  |  |  | > 100 µM (inactive) | > 100 µM (inactive) | > 100 µM (inactive) |  |  | > 100 µM (inactive) | > 100 µM (inactive) | > 100 µM (inactive) |  | > 100 µM (inactive) | > 100 µM (inactive) | > 100 µM (inactive) | > 100 µM (inactive) | > 100 µM (inactive) | GI50 (UO-31): > 100 µM (inactive); GI50 (DU-145): > 100 µM (inactive); GI50 (SF-539): > 100 µM (inactive); GI50 (EKVX): > 100 µM (inactive); GI50 (HCC 2998): > 100 µM (inactive); GI50 (CCRF-CEM): > 100 µM (inactive); GI50 (SR): > 100 µM (inactive); GI50 (HCT-116): > 100 µM (inactive); GI50 (UACC-62): > 100 µM (inactive); GI50 (HT-29): > 100 µM (inactive); GI50 (NCI-H522): > 100 µM (inactive); GI50 (MDA-MB-231): > 100 µM (inactive); GI50 (A498): > 100 µM (inactive); GI50 (SN12C): > 100 µM (inactive); GI50 (HCT-15): > 100 µM; GI50 (MOLT-4): > 100 µM (inactive); GI50 (HL-60): > 100 µM (inactive); GI50 (U-251): > 100 µM (inactive); GI50 (MDA-N): > 100 µM (inactive)
COc1cc(/C=C/c2ccc(S(N)(=O)=O)cc2)cc(OC)c1 | 14.8 µM (inactive) | 16.2 µM (inactive) | 24.6 µM (inactive) | 17.7 µM (inactive) |  | 39.8 µM (inactive) | 24.5 µM (inactive) |  |  | 13.1 µM (inactive) | 23.8 µM (inactive) |  |  | 14.1 µM (inactive) | 15.9 µM (inactive) | 51.2 µM (inactive) | 23.9 µM (inactive) | 8.18 µM (inactive) | 28.9 µM (inactive) |  | GI50 (TK-10): 22.4 µM (inactive); GI50 (UO-31): 21.9 µM (inactive); GI50 (DU-145): 32.7 µM (inactive); GI50 (UACC-257): 20.3 µM (inactive); GI50 (EKVX): 22.4 µM (inactive); GI50 (HCC 2998): 19.7 µM (inactive); GI50 (HCT-116): 14.5 µM (inactive); GI50 (OVCAR-3): 16.5 µM (inactive); GI50 (PC-3): 19.5 µM (inactive); GI50 (MDA-MB-231): 16.9 µM (inactive); GI50 (A498): 18.2 µM (inactive); GI50 (SNB-19): 39.1 µM (inactive); GI50 (SN12C): 22.6 µM (inactive); GI50 (SK-MEL-2): 18.7 µM (inactive); GI50 (MDA-N): 20.6 µM (inactive); GI50 (786-0): 21.5 µM (inactive); GI50 (SF-295): 22.6 µM (inactive)
O=C(Nc1nccs1)c1cc2c(cc1Cl)Sc1nccn1S2(=O)=O |  |  |  | 16 µM (inactive) | 15.3 µM (inactive) |  |  |  |  |  |  |  |  |  | 16.7 µM (inactive) |  |  |  |  | 17.2 µM (inactive) | 
